Source: patent US11446287B2, “Compounds and methods for EP300 or CBP modulation and indications therefor” (Opna Immuno-Oncology SA, priority 2019, dated 2022)
pIC50: −log10 of the molar value.

Target: T1, Recombinant human BRD4 containing dual bromodomains (BRD4-BD12 (1-477)) (Homo sapiens, UniProt O60885)
T1 construct: Recombinant human BRD4 containing dual bromodomains (BRD4-BD12 (1-477)); made in house; host or cells: E. coli BL21-CodonPlus (DE3), modified pET vector
Experiment: BRD4 Alphascreen binding assay
Method in brief: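 His-tagged human BRD4 tandem bromodomains (1-477, E. coli) incubated 1 h at room temperature with biotinylated tetra-acetylated H4 (1-21) peptide and compound in HEPES pH 7.5 buffer with 2 mM DTT. AlphaScreen signal read 30 min after adding beads (7.5 μg/ml); IC50 from four-parameter fit after normalization to controls.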

How did the pIC50 turn out when CCc1onc(C)c1-c1cnc2c(c1)c(-c1ccc(C(=O)O)cc1OC(F)(F)F)cn2C1CCOCC1 [P-0401, 4-(5-(5-ethyl-3-methylisoxazol-4-yl)-1-(tetrahydro-2H-pyran-4-yl)-1H-pyrrolo[2,3-b]pyridin-3-yl)-3-(trifluoromethoxy)benzoic acid] was run?
The pIC50 was 5.10 to 6.00.

How did the pIC50 turn out when Cc1cc(C(=O)O)cc(OC(C)C)c1-c1cn(C2CCOCC2)c2ncc(-c3c(C)noc3C)cc12 [P-0402, 4-(5-(3,5-dimethylisoxazol-4-yl)-1-(tetrahydro-2H-pyran-4-yl)-1H-pyrrolo[2,3-b]pyridin-3-yl)-3-isopropoxy-5-methylbenzoic acid] was run?
Its pIC50 is 5.10 to 6.00.

With Cc1noc(C)c1-c1cnc2c(c1)c(-c1ccc(C(=O)O)cc1OC(C)C)cn2C1(C)CCOCC1 [P-0403, 4-(5-(3,5-dimethylisoxazol-4-yl)-1-(4-methyltetrahydro-2H-pyran-4-yl)-1H-pyrrolo[2,3-b]pyridin-3-yl)-3-isopropoxybenzoic acid] as the compound, how does the pIC50 read?
The pIC50 was 3.00 to 5.10.

With Cc1noc(C)c1-c1cnc2c(c1)c(-c1c(Cl)cc(C(=O)O)cc1OC(C)C)cn2C1(C)CCOCC1 [P-0404, 3-chloro-4-(5-(3,5-dimethylisoxazol-4-yl)-1-(4-methyltetrahydro-2H-pyran-4-yl)-1H-pyrrolo[2,3-b]pyridin-3-yl)-5-isopropoxybenzoic acid] as the compound, how does the pIC50 read?
The pIC50 was 3.00 to 5.10.

With CCOc1nc(C(=O)O)ccc1-c1cn(C2(C)CCOCC2)c2ncc(-c3c(C)noc3C)cc12 [P-0405, 5-(5-(3,5-dimethylisoxazol-4-yl)-1-(4-methyltetrahydro-2H-pyran-4-yl)-1H-pyrrolo[2,3-b]pyridin-3-yl)-6-ethoxypicolinic acid] as the compound, how does the pIC50 read?
Its pIC50 is 5.10 to 6.00.

CCOc1nc(C(=O)O)c(Cl)cc1-c1cn([C@H]2CCOC2)c2ncc(-c3c(C)noc3C)cc12 [P-0406, (S)-3-chloro-5-(5-(3,5-dimethylisoxazol-4-yl)-1-(tetrahydrofuran-3-yl)-1H-pyrrolo[2,3-b]pyridin-3-yl)-6-ethoxypicolinic acid] was tested. Which pIC50 did it give?
The pIC50 was 3.00 to 5.10.

With Cc1noc(C)c1-c1cnc2c(c1)c(-c1ccc(C(=O)O)cc1OC(C)C)cn2C1(C)CCOC1 (stereo not shown) [P-0407, 4-(5-(3,5-dimethylisoxazol-4-yl)-1-(3-methyltetrahydrofuran-3-yl)-1H-pyrrolo[2,3-b]pyridin-3-yl)-3-isopropoxybenzoic acid] as the compound, how does the pIC50 read?
Its pIC50 is 3.00 to 5.10.

Cc1noc(C)c1-c1cnc2c(c1)c(-c1c(Cl)cc(C(=O)O)cc1OC(C)C)cn2C1(C)CCOC1 (stereo not shown) [P-0408, 3-chloro-4-(5-(3,5-dimethylisoxazol-4-yl)-1-(3-methyltetrahydrofuran-3-yl)-1H-pyrrolo[2,3-b]pyridin-3-yl)-5-isopropoxybenzoic acid] was tested. Which pIC50 did it give?
Its pIC50 is 3.00 to 5.10.

With Cc1noc(C)c1-c1cnc2c(c1)c(-c1c(Cl)cc(C(=O)O)cc1OC1CC1)cn2-c1ncccc1C#N [P-0409, 3-chloro-4-(1-(3-cyanopyridin-2-yl)-5-(3,5-dimethylisoxazol-4-yl)-1H-pyrrolo[2,3-b]pyridin-3-yl)-5-cyclopropoxybenzoic acid] as the compound, how does the pIC50 read?
Its pIC50 is 5.10 to 6.00.

With Cc1noc(C)c1-c1cnc2c(c1)c(-c1c(F)cc(C(=O)O)cc1OC1CCC1)cn2C1CCOCC1 [P-0410, 3-cyclobutoxy-4-(5-(3,5-dimethylisoxazol-4-yl)-1-(tetrahydro-2H-pyran-4-yl)-1H-pyrrolo[2,3-b]pyridin-3-yl)-5-fluorobenzoic acid] as the compound, how does the pIC50 read?
The pIC50 was 3.00 to 5.10.

With CCOc1nc(C(=O)O)cc(C)c1-c1cn(C2CCOCC2)c2ncc(-c3c(C)noc3C)cc12 [P-0411, 5-(5-(3,5-dimethylisoxazol-4-yl)-1-(tetrahydro-2H-pyran-4-yl)-1H-pyrrolo[2,3-b]pyridin-3-yl)-6-ethoxy-4-methylpicolinic acid] as the compound, how does the pIC50 read?
The pIC50 was 3.00 to 5.10.

With CCOc1nc(C(=O)O)cc(C)c1-c1cn(-c2ccc(F)cc2F)c2ncc(-c3c(C)noc3C)cc12 [P-0412, 5-(1-(2,4-difluorophenyl)-5-(3,5-dimethylisoxazol-4-yl)-1H-pyrrolo[2,3-b]pyridin-3-yl)-6-ethoxy-4-methylpicolinic acid] as the compound, how does the pIC50 read?
The pIC50 was 5.10 to 6.00.

Cc1nnn(C)c1-c1cnc2c(c1)c(-c1ccc(C(=O)O)cc1OC1CC1)cn2C1CCOCC1 [P-0413, 3-cyclopropoxy-4-(5-(1,4-dimethyl-1H-1,2,3-triazol-5-yl)-1-(tetrahydro-2H-pyran-4-yl)-1H-pyrrolo[2,3-b]pyridin-3-yl)benzoic acid] was tested. Which pIC50 did it give?
The pIC50 was 5.10 to 6.00.

CCOc1cc(C(=O)O)nc(OCC)c1-c1cn(-c2ccccc2F)c2ncc(-c3c(C)noc3C)cc12 [P-0414, 5-(5-(3,5-dimethylisoxazol-4-yl)-1-(2-fluorophenyl)-1H-pyrrolo[2,3-b]pyridin-3-yl)-4,6-diethoxypicolinic acid] was tested. Which pIC50 did it give?
The pIC50 was 5.10 to 6.00.

How did the pIC50 turn out when CCOc1cc(C(=O)O)nc(OCC)c1-c1cn([C@@H](C)c2ccccn2)c2ncc(-c3c(C)noc3C)cc12 [P-0415, (S)-5-(5-(3,5-dimethylisoxazol-4-yl)-1-(1-(pyridin-2-yl)ethyl)-1H-pyrrolo[2,3-b]pyridin-3-yl)-4,6-diethoxypicolinic acid] was run?
Its pIC50 is 3.00 to 5.10.

How did the pIC50 turn out when CCOc1nc(C(=O)O)c(C)cc1-c1cn(C(C2CC2)C2CC2)c2ncc(-c3c(C)noc3C)cc12 [P-0416, 5-(1-(dicyclopropylmethyl)-5-(3,5-dimethylisoxazol-4-yl)-1H-pyrrolo[2,3-b]pyridin-3-yl)-6-ethoxy-3-methylpicolinic acid] was run?
Its pIC50 is 3.00 to 5.10.

With CCOc1nc(C(=O)O)cc(C)c1-c1cn(C(C2CC2)C2CC2)c2ncc(-c3c(C)noc3C)cc12 [P-0417, 5-(1-(dicyclopropylmethyl)-5-(3,5-dimethylisoxazol-4-yl)-1H-pyrrolo[2,3-b]pyridin-3-yl)-6-ethoxy-4-methylpicolinic acid] as the compound, how does the pIC50 read?
The pIC50 was 3.00 to 5.10.

Cc1noc(C)c1-c1cnc2c(c1)c(-c1ccnc(C(=O)O)c1C)cn2C(C1CC1)C1CC1 [P-0418, 4-(1-(dicyclopropylmethyl)-5-(3,5-dimethylisoxazol-4-yl)-1H-pyrrolo[2,3-b]pyridin-3-yl)-3-methylpicolinic acid] was tested. Which pIC50 did it give?
The pIC50 was 6.00 to 10.00.

With Cc1noc(C)c1-c1cnc2c(c1)c(-c1ccnc(C(=O)O)c1C)cn2C1CCOCC1 [P-0419, 4-(5-(3,5-dimethylisoxazol-4-yl)-1-(tetrahydro-2H-pyran-4-yl)-1H-pyrrolo[2,3-b]pyridin-3-yl)-3-methylpicolinic acid] as the compound, how does the pIC50 read?
The pIC50 was 6.00 to 10.00.

CCOc1cc(C(=O)O)nc(OCC)c1-c1cn(C(C2CC2)C2CC2)c2ncc(-c3c(C)noc3C)cc12 [P-0420, 5-(1-(dicyclopropylmethyl)-5-(3,5-dimethylisoxazol-4-yl)-1H-pyrrolo[2,3-b]pyridin-3-yl)-4,6-diethoxypicolinic acid] was tested. Which pIC50 did it give?
The pIC50 was 3.00 to 5.10.

With CCOc1cc(C(=O)O)nc(OCC)c1-c1cn(-c2ncccc2C#N)c2ncc(-c3c(C)noc3C)cc12 [P-0421, 5-(1-(3-cyanopyridin-2-yl)-5-(3,5-dimethylisoxazol-4-yl)-1H-pyrrolo[2,3-b]pyridin-3-yl)-4,6-diethoxypicolinic acid] as the compound, how does the pIC50 read?
The pIC50 was 3.00 to 5.10.

With CCOc1cc(C(=O)O)nc(OCC)c1-c1cn(-c2ncccc2C(N)=O)c2ncc(-c3c(C)noc3C)cc12 [P-0422, 5-(1-(3-carbamoylpyridin-2-yl)-5-(3,5-dimethylisoxazol-4-yl)-1H-pyrrolo[2,3-b]pyridin-3-yl)-4,6-diethoxypicolinic acid] as the compound, how does the pIC50 read?
Its pIC50 is 3.00 to 5.10.

CCOc1cc(C(=O)O)nc(OCC)c1-c1cn(-c2ccc(C#N)cc2F)c2ncc(-c3c(C)noc3C)cc12 [P-0423, 5-(1-(4-cyano-2-fluorophenyl)-5-(3,5-dimethylisoxazol-4-yl)-1H-pyrrolo[2,3-b]pyridin-3-yl)-4,6-diethoxypicolinic acid] was tested. Which pIC50 did it give?
The pIC50 was 5.10 to 6.00.

With CCOc1cc(C(=O)O)nc(OCC)c1-c1cn(-c2cnc(C3CC3)nc2)c2ncc(-c3c(C)noc3C)cc12 [P-0424, 5-(1-(2-cyclopropylpyrimidin-5-yl)-5-(3,5-dimethylisoxazol-4-yl)-1H-pyrrolo[2,3-b]pyridin-3-yl)-4,6-diethoxypicolinic acid] as the compound, how does the pIC50 read?
The pIC50 was 5.10 to 6.00.

How did the pIC50 turn out when CCOc1cc(C(=O)O)nc(OCC)c1-c1cn(C2CCC(F)(F)CC2)c2ncc(-c3c(C)noc3C)cc12 [P-0425, 5-(1-(4,4-difluorocyclohexyl)-5-(3,5-dimethylisoxazol-4-yl)-1H-pyrrolo[2,3-b]pyridin-3-yl)-4,6-diethoxypicolinic acid] was run?
The pIC50 was 3.00 to 5.10.

CCOc1cc(C(=O)O)ncc1-c1cn(C(C2CC2)C2CC2)c2ncc(-c3c(C)noc3C)cc12 [P-0427, 5-(1-(dicyclopropylmethyl)-5-(3,5-dimethylisoxazol-4-yl)-1H-pyrrolo[2,3-b]pyridin-3-yl)-4-ethoxypicolinic acid] was tested. Which pIC50 did it give?
Its pIC50 is 5.10 to 6.00.

With CCOc1cc(C(=O)O)ncc1-c1cn(C2CCOCC2)c2ncc(-c3c(C)noc3C)cc12 [P-0428, 5-(5-(3,5-dimethylisoxazol-4-yl)-1-(tetrahydro-2H-pyran-4-yl)-1H-pyrrolo[2,3-b]pyridin-3-yl)-4-ethoxypicolinic acid] as the compound, how does the pIC50 read?
The pIC50 was 6.00 to 10.00.

With CCOc1cc(C(=O)O)nc(OCC)c1-c1cn(-c2cn(C(F)F)nc2C)c2ncc(-c3c(C)noc3C)cc12 [P-0429, 5-(1-(1-(difluoromethyl)-3-methyl-1H-pyrazol-4-yl)-5-(3,5-dimethylisoxazol-4-yl)-1H-pyrrolo[2,3-b]pyridin-3-yl)-4,6-diethoxypicolinic acid] as the compound, how does the pIC50 read?
The pIC50 was 3.00 to 5.10.

How did the pIC50 turn out when CCOc1cc(C(=O)O)nc(OCC)c1-c1cn(-c2cn(CC)nc2C)c2ncc(-c3c(C)noc3C)cc12 [P-0430, 5-(5-(3,5-dimethylisoxazol-4-yl)-1-(1-ethyl-3-methyl-1H-pyrazol-4-yl)-1H-pyrrolo[2,3-b]pyridin-3-yl)-4,6-diethoxypicolinic acid] was run?
The pIC50 was 5.10 to 6.00.

With CCOc1cc(C(=O)O)nc(OCC)c1-n1cc(-c2ccc(F)cc2F)c2ncc(-c3c(C)noc3C)cc21 [P-0431, 5-(3-(2,4-difluorophenyl)-6-(3,5-dimethylisoxazol-4-yl)-1H-pyrrolo[3,2-b]pyridin-1-yl)-4,6-diethoxypicolinic acid] as the compound, how does the pIC50 read?
Its pIC50 is 5.10 to 6.00.

With CCOc1cc(C(=O)OC)nc(OCC)c1-c1cn(-c2ccc(F)cc2F)c2ncc(-c3c(C)noc3C)cc12 [P-0432, methyl 5-(1-(2,4-difluorophenyl)-5-(3,5-dimethylisoxazol-4-yl)-1H-pyrrolo[2,3-b]pyridin-3-yl)-4,6-diethoxypicolinate] as the compound, how does the pIC50 read?
Its pIC50 is 3.00 to 5.10.
